This passage reports Ki results from publication PMC6027465, “Benzamide-4-Sulfonamides Are Effective Human Carbonic Anhydrase I, II, VII, and IX Inhibitors” (Metabolites, 2018).

Structures are written as SMILES.

One assay deals with T1, hCA II (Homo sapiens, UniProt P00918).
T1 construct: gene CA2; recombinant
The class given is biochemical.

In the next assay the target is T2, hCA I (Homo sapiens, UniProt P00915).
T2 construct: gene CA1; recombinant
The class given is biochemical.

Another assay addresses T3, VchCAβ (Vibrio cholerae, UniProt A0A086SLX8).
T3 construct: gene can
The class given is biochemical. The note with it: read-out: VchCAβ; CO2 […], […] TRIS pH […] Na2SO4, […] °C, […] min preincubation.

For the next assay, the target named is T4, hCA VII (Homo sapiens, UniProt P43166).
T4 construct: gene CA7; recombinant
It counts as biochemical.

For the next assay, the target named is T5, MgCA (Malassezia globosa, UniProt A8Q1N3).
T5 construct: gene MGL_1814
T5 sequence (A8Q1N3 1-241): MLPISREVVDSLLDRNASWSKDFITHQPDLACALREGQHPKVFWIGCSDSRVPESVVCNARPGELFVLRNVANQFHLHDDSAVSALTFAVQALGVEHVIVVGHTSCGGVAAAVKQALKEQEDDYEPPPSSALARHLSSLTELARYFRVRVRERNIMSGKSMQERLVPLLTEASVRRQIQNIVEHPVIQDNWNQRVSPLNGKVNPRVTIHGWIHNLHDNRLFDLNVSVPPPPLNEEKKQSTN
Nature of the assay: biochemical.

The next assay concerns the target T6, VchCAγ.
T6 construct: gene VchCAgamma
It counts as biochemical, Vibrio cholerae. To be noted: CO2 […], […] TRIS pH […] Na2SO4, […] °C, […] min preincubation.

T2 sequence (P00915 2-261): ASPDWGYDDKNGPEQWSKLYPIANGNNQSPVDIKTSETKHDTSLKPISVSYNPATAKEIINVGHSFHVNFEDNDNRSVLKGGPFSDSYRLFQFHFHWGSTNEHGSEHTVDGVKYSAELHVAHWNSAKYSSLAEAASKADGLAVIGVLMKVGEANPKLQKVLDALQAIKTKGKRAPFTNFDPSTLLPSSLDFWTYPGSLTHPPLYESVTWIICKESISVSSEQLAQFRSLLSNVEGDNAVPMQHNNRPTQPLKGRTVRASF
T3 sequence (A0A086SLX8 1-222): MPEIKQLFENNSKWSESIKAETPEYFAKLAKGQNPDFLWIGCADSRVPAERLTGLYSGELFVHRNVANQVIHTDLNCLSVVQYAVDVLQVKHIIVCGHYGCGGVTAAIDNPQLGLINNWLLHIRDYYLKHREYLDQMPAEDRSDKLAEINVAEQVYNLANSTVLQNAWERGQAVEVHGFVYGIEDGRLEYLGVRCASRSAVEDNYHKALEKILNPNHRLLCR
T4 sequence (P43166 whole entry): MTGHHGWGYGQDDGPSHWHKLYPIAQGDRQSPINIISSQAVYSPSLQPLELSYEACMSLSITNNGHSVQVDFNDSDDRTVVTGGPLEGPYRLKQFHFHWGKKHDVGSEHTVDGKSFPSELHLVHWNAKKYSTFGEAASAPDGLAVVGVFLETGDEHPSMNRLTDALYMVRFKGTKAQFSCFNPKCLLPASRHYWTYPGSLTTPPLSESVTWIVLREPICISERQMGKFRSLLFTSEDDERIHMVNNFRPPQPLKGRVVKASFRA

Consider `COC(=O)[C@H](Cc1ccccc1)NC(=O)c1ccc(S(N)(=O)=O)cc1` [3l, Methyl (4-Sulfamoylbenzoyl)-L-Phenylalaninate], for which the Ki on hCA II stood at 3.3 nM; at hCA I, 5.6 nM; at VchCAβ, 663 nM; on hCA VII, 0.5 nM; on MgCA, 0.517 µM; on VchCAγ, 409 nM.

Consider `COC(=O)C[C@@H](NC(=O)c1ccc(S(N)(=O)=O)cc1)C(=O)OC` [3i, Dimethyl (4-Sulfamoylbenzoyl)-D-Aspartate], for which the Ki was found to be 6.1 nM at hCA II; 75.7 nM at hCA I; 910 nM on VchCAβ; 0.7 nM on hCA VII; 6.95 µM at MgCA; 744 nM at VchCAγ.

As for `COC(=O)C(C)NC(=O)c1ccc(S(N)(=O)=O)cc1` (racemic) [3j, Methyl (4-Sulfamoylbenzoyl)-DL-Alaninate], the Ki worked out at 6.1 nM at hCA II; 85.3 nM on hCA I; 412 nM on VchCAβ; 3.7 nM on hCA VII; 0.0873 µM at MgCA; 271 nM on VchCAγ.

`COC(=O)C(NC(=O)c1ccc(S(N)(=O)=O)cc1)C(C)C` (racemic) [3f, Methyl (4-Sulfamoylbenzoyl)-DL-Valinate]: the Ki at hCA II is 4.5 nM; at hCA I it was 57.8 nM; on VchCAβ, 8170 nM; on hCA VII it was 3.7 nM; on MgCA, 5.5 µM; on VchCAγ, 4460 nM.

On to `COC(=O)[C@H](CC(C)C)NC(=O)c1ccc(S(N)(=O)=O)cc1` [3h, Methyl (4-Sulfamoylbenzoyl)-L-Leucinate], for which the Ki is 3.7 nM on hCA II; 5.6 nM at hCA I; 719 nM at VchCAβ; 0.4 nM on hCA VII; 0.763 µM at MgCA; 891 nM at VchCAγ.

`NS(=O)(=O)c1ccc(C(=O)N2CCCCC2)cc1` [3e, 4-(Piperidine-1-Carbonyl)Benzenesulfonamide]: the values for the Ki at VchCAβ, on MgCA and at VchCAγ were 749 nM, 3.98 µM and 453 nM, respectively.

With `CCNC(=O)c1ccc(S(N)(=O)=O)cc1` [3a, N-Ethyl-4-Sulfamoylbenzamide], the Ki turned out to be 5.3 nM on hCA II; 334 nM at hCA I; 7080 nM at VchCAβ; 26.7 nM on hCA VII; 7.67 µM on MgCA; 929 nM at VchCAγ.

Regarding `CCOC(=O)CCCNC(=O)c1ccc(S(N)(=O)=O)cc1` [3k, Ethyl 4-(4-Sulfamoylbenzamido)Butanoate], the Ki on hCA II came to 4 nM; at hCA I it was 5.3 nM; at VchCAβ, 953 nM; on hCA VII, 0.4 nM; at MgCA, 6.69 µM; at VchCAγ, 756 nM.

In the case of `COC(=O)CC[C@@H](NC(=O)c1ccc(S(N)(=O)=O)cc1)C(=O)OC` [3g, Dimethyl (4-Sulfamoylbenzoyl)-D-Glutamate], the Ki is 5.2 nM on hCA II; 8.2 nM on hCA I; 862 nM on VchCAβ; 0.6 nM at hCA VII; 0.632 µM on MgCA; 503 nM at VchCAγ.

`CCCNC(=O)c1ccc(S(N)(=O)=O)cc1` [3b, N-Propyl-4-Sulfamoylbenzamide]: the Ki worked out at 3.5 nM at hCA II; 8.2 nM on hCA I; 7680 nM at VchCAβ; 0.4 nM on hCA VII; 3.92 µM on MgCA; 636 nM on VchCAγ.

On to `C#CCNC(=O)c1ccc(S(N)(=O)=O)cc1` [3c, N-(Prop-2-Yn-1-Yl)-4-Sulfamoylbenzamide], for which the Ki was found to be 741 nM at VchCAβ, 0.6 nM on hCA VII, 5.78 µM on MgCA and 383 nM at VchCAγ.

For the compound `NS(=O)(=O)c1ccc(C(=O)N2CCOCC2)cc1` [3d, 4-(Morpholine-4-Carbonyl)Benzenesulfonamide], the Ki at hCA II stood at 6.2 nM; at hCA I it was 8.7 nM; at VchCAβ, 8590 nM; on hCA VII it was 0.8 nM; on MgCA it was 5.88 µM; on VchCAγ it was 693 nM.
